Reference: patent publication US10273227B2, “C5-anilinoquinazoline compounds and their use in treating cancer” (AstraZeneca AB, priority 2017, dated 2019)

Tests used:
Type in all cases: cell-based
[1] = tested on: Ba/F3-Parental; experiment: MTS viability assay, Ba/F3 parental cells; details: Mus musculus, BaF3, 72 h incubation, top concentration 10 uM
Method: (§1) Exponentially grown Ba/F3 cells (1.5×10^6 cells in 2 ml medium) were infected with 2 ml of viral suspension in a 6-well plate in the presence of mIL-3 (10 ng/ml) and polybrene (4 μg/ml) (Sigma Aldrich, St. Louis, Mo.) and incubated for 24 h. After 24 h, the cells were centrifuged and the viral supernatant was discarded. The cells were then re-suspended in fresh medium and allowed to recover for another day. The following day, the cells were seeded in complete medium without murine IL-3. After a week or two, when cells started proliferating, a selection was carried out by gradually increasing the puromycin concentration to 0.5 ug/ml. Once the cells were growing exponentially in puromycin, batches of cells were frozen down for banking.
(§2) The impact of KIT inhibitors on the viability of Ba/F3 expressing KIT mutations was determined using an MTS assay, which is a colorimetric sensitive quantification of viable cells in proliferation and cytotoxicity assay. In the MTS assay […] in the presence of phenazine methosulfate (PMS) was used. The mitochondrial reductase forms a formazan which absorbs at 490 nm. Cells in exponential growth phase were added to 384-well plates containing pre-dispensed compounds (top concentration 10 uM, 10-point curve). The cells were incubated for 72 h at 37° C. and 5% CO2. After 72 h, MTS reagent was added to the plates and incubated an additional 2 h at 37° C. before measuring the absorbance at 490 nm on a Tecan microplate reader using Magellan Software (Tecan Trading AG, Switzerland).
(§3) The absorbances were normalized as follows: (Read-Day0 control)/(Day3 control−Day0 control)*100. The GI50 values were generated using Genedata Screener software (Genedata Lexington, Mass.). A non-linear regression with constraints for top and bottom between 100 and −100 and no constraint on the Hill coefficient was used to generate GI50 values. The GI50 values reported below are the calculated mean result of at least 3 biological replicates across all the cell lines tested.

[2] = target: T1, Ba/F3-T670I (KIT exon11 deletion (557-558) and secondary mutation T670I) (Homo sapiens, UniProt P10721, DEL557-558/T670I); experiment: MTS viability assay, Ba/F3 expressing KIT exon11 deletion (557-558) and T670I; details: 72 h incubation, top concentration 10 uM
T1 construct: expressed in transfected cells; host or cells: Ba/F3 cells, lentiviral transduction (pLVX-IRES Puro)
Method: as §1, §2, §3

[3] = target: T2, Ba/F3-V654A (KIT exon11 deletion (557-558) and secondary mutation V654A) (Homo sapiens, UniProt P10721, DEL557-558/V654A); experiment: MTS viability assay, Ba/F3 expressing KIT exon11 deletion (557-558) and V654A; details: 72 h incubation, top concentration 10 uM
T2 construct: expressed in transfected cells; host or cells: Ba/F3 cells, lentiviral transduction (pLVX-IRES Puro)
Method: as §1, §2, §3

[4] = target: T3, Ba/F3-D816H (KIT exon11 deletion (557-558) and secondary mutation D816H) (Homo sapiens, UniProt P10721, D816H/DEL557-558); experiment: MTS viability assay, Ba/F3 expressing KIT exon11 deletion (557-558) and D816H; details: 72 h incubation, top concentration 10 uM
T3 construct: expressed in transfected cells; host or cells: Ba/F3 cells, lentiviral transduction (pLVX-IRES Puro)
Method: as §1, §2, §3

[5] = tested on: TEL-KDR (KDR (K790-V1356) fused to the C-terminus of Tel); experiment: MTS viability assay, Ba/F3 expressing Tel-KDR; details: 72 h incubation, top concentration 10 uM
Method: Tel-KDR myc was cloned into pBCS2004, a retroviral vector, wherein KDR (K790-V1356) is fused to the C-terminus of Tel. Retroviral particles were generated in HEK293T cells. The Tel-KDR plasmid was co-transfected with helper viruses (gag-Pol and VSV-G) into HEK293T cells using calcium phosphate and the virus was harvested 72 h after transfection.
as §1, §2, §3

T2 sequence (P10721 with tags, fused parts or gaps DEL557-558/V654A): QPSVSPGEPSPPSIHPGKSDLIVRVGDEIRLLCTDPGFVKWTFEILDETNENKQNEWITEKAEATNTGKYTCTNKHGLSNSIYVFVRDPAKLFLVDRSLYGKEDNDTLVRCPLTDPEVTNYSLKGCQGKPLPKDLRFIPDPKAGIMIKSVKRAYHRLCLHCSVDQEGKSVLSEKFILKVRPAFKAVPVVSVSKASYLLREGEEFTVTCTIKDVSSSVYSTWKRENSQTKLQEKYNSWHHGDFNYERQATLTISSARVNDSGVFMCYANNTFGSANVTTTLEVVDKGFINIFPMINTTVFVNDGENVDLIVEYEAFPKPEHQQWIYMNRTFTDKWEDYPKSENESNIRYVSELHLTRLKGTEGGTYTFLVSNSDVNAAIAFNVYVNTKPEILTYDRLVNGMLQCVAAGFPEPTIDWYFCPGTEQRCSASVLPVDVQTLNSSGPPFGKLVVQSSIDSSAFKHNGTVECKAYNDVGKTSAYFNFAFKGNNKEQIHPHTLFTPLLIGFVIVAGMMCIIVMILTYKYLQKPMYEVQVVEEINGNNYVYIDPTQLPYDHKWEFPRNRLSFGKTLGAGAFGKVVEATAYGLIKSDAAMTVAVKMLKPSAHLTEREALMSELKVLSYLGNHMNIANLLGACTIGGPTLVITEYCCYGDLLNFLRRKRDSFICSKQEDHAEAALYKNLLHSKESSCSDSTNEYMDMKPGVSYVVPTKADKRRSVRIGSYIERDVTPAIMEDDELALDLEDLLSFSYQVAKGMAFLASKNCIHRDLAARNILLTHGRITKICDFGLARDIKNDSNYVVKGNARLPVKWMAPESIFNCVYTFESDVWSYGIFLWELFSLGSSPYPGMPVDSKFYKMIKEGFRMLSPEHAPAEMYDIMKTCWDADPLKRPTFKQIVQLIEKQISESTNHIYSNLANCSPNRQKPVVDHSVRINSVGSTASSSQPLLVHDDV
T1 sequence (P10721 with tags, fused parts or gaps DEL557-558/T670I): as the sequence (P10721 with tags, fused parts or gaps DEL557-558/V654A) above, with A627V, T643I counted along it
T3 sequence (P10721 with tags, fused parts or gaps DEL557-558/D816H): as the sequence (P10721 with tags, fused parts or gaps DEL557-558/V654A) above, with A627V, D789H counted along it

GI50 [5] [µM] | Structure (SMILES) | GI50 [1] [µM] | Ba/F3-T670I GI50 [2] [µM] | Ba/F3-V654A GI50 [3] [nM] | Ba/F3-D816H GI50 [4] [µM]
≥ 10 | COc1cc(OC)c2c(Nc3ccc(NC(=O)Cn4cc(C(C)C)nn4)cc3F)ncnc2c1 [Example 1, N-(4-[(5,7-dimethoxyquinazolin-4-yl)amino]-3-fluorophenyl)-2-[4-(propan-2-yl)-1H-1,2,3-triazol-1-yl]acetamide] | ≥ 10 | 0.162 | 7 | 0.141
2.5 | COc1cc2ncnc(Nc3ccc(NC(=O)Cn4cc(C(C)C)nn4)cc3)c2c(F)c1OC [Example 2, N-{4-[(5-fluoro-6,7-dimethoxyquinazolin-4-yl)amino]phenyl}-2-[4-(propan-2-yl)-1H-1,2,3-triazol-1-yl]acetamide] | ≥ 10 | 0.049 | 4 | 0.022
6.18 | CCOc1cc(OC2CCOCC2)cc2ncnc(Nc3ccc(NC(=O)Cn4cc(C(C)C)nn4)cc3)c12 [Example 5, N-(4-((5-Ethoxy-7-((tetrahydro-2H-pyran-4-yl)oxy)quinazolin-4-yl)amino)phenyl)-2-(4-isopropyl-1H-1,2,3-triazol-1-yl)acetamide] | 1.87 | 0.591 | 41 | 0.138
2.66 | CCOc1cc(OCCN(C)C)cc2ncnc(Nc3ccc(NC(=O)Cn4cc(C(C)C)nn4)cc3)c12 [Example 6, N-(4-((7-(2-(Dimethylamino)ethoxy)-5-ethoxyquinazolin-4-yl)amino)phenyl)-2-(4-isopropyl-1H-1,2,3-triazol-1-yl)acetamide] | 2.05 | 0.091 | 13 | 0.063
3.19 | CCOc1cc(OC)cc2ncnc(Nc3ccc(NC(=O)Cn4cc(C(C)C)nn4)cc3)c12 [Example 7, N-(4-((5-Ethoxy-7-methoxyquinazolin-4-yl)amino)phenyl)-2-(4-isopropyl-1H-1,2,3-triazol-1-yl)acetamide] | ≥ 10 | 0.073 | 7 | 0.079
2.15 | CCOc1cc(OCCOC)cc2ncnc(Nc3ccc(NC(=O)Cn4cc(C(C)C)nn4)cc3)c12 [Example 8, N-(4-((5-Ethoxy-7-(2-methoxyethoxy)quinazolin-4-yl)amino)phenyl)-2-(4-isopropyl-1H-1,2,3-triazol-1-yl)acetamide] | 2.55 | 0.032 | 15 | 0.044
2.33 | CCOc1cc(OC2COC2)cc2ncnc(Nc3ccc(NC(=O)Cn4cc(C(C)C)nn4)cc3)c12 [Example 9, N-(4-((5-Ethoxy-7-(oxetan-3-yloxy)quinazolin-4-yl)amino)phenyl)-2-(4-isopropyl-1H-1,2,3-triazol-1-yl)acetamide] | 1.71 | 0.127 | 12 | 0.105
9.48 | COc1cc(OC2CCOCC2)cc2ncnc(Nc3ccc(NC(=O)Cn4cc(C(C)C)nn4)cc3)c12 [Example 10, N-(4-{[5-Methoxy-7-(tetrahydro-2H-pyran-4-yloxy)quinazolin-4-yl]amino}phenyl)-2-[4-(propan-2-yl)-1H-1,2,3-triazol-1-yl]acetamide] | ≥ 10 | 0.640 | 7 | 0.065
2.48 | COc1cc2ncnc(Nc3ccc(NC(=O)Cn4cc(C(C)C)nn4)cc3)c2c(OC)c1OC [Example 11, 2-[4-(Propan-2-yl)-1H-1,2,3-triazol-1-yl]-N-{4-[(5,6,7-trimethoxyquinazolin-4-yl)amino]phenyl}acetamide] | ≥ 10 | 0.036 | 4 | 0.027
1.3 | COCCOc1cc(F)c2c(Nc3ccc(NC(=O)Cn4cc(C(C)C)nn4)cc3)ncnc2c1 [Example 12, N-(4-{[5-Fluoro-7-(2-methoxyethoxy)quinazolin-4-yl]amino}phenyl)-2-[4-(propan-2-yl)-1H-1,2,3-triazol-1-yl]acetamide] | ≥ 10 | 0.015 | 2 | 0.007
4.18 | COc1cc(OC(C)C)cc2ncnc(Nc3ccc(NC(=O)Cn4cc(C(C)C)nn4)cc3)c12 [Example 15, N-(4-{[5-Methoxy-7-(propan-2-yloxy)quinazolin-4-yl]amino}phenyl)-2-[4-(propan-2-yl)-1H-1,2,3-triazol-1-yl]acetamide] | ≥ 10 | 0.254 | 11 | 0.035
9.36 | COc1cc(OC2COC2)cc2ncnc(Nc3ccc(NC(=O)Cn4cc(C(C)C)nn4)cc3)c12 [Example 16, N-(4-{[5-Methoxy-7-(oxetan-3-yloxy)quinazolin-4-yl]amino}phenyl)-2-[4-(propan-2-yl)-1H-1,2,3-triazol-1-yl]acetamide] | ≥ 10 | 0.502 | 12 | 0.090
≥ 10 | COc1cc(OCCN(C)C)cc2ncnc(Nc3ccc(NC(=O)Cn4cc(C(C)C)nn4)cc3)c12 [Example 17, N-[4-({7-[2-(Dimethylamino)ethoxy]-5-methoxyquinazolin-4-yl}amino)phenyl]-2-[4-(propan-2-yl)-1H-1,2,3-triazol-1-yl]acetamide] | ≥ 10 | 0.627 | 20 | 0.088
6.01 | CCOc1cc(OC)c2c(Nc3ccc(NC(=O)Cn4cc(C(C)C)nn4)cc3)ncnc2c1 [Example 18, N-{4-[(7-Ethoxy-5-methoxyquinazolin-4-yl)amino]phenyl}-2-[4-(propan-2-yl)-1H-1,2,3-triazol-1-yl]acetamide] | ≥ 10 | 0.066 | 3 | 0.021
≥ 10 | CCOc1cc(OCC)c2c(Nc3ccc(NC(=O)Cn4cc(C(C)C)nn4)cc3)ncnc2c1 [Example 19, N-{4-[(5,7-Diethoxyquinazolin-4-yl)amino]phenyl}-2-[4-(propan-2-yl)-1H-1,2,3-triazol-1-yl]acetamide] | ≥ 10 | 0.034 | 7 | 0.056
3.39 | COCCOc1cc(OC)c2c(Nc3ccc(NC(=O)Cn4cc(C(C)C)nn4)cc3)ncnc2c1 [Example 20, N-(4-{[5-Methoxy-7-(2-methoxyethoxy)quinazolin-4-yl]amino}phenyl)-2-[4-(propan-2-yl)-1H-1,2,3-triazol-1-yl]acetamide] | 9.96 | 0.053 | 8 | 0.030
≥ 10 | COc1cc(F)c2c(Nc3ccc(NC(=O)Cn4cc(C(C)C)nn4)cc3)ncnc2c1 [Example 21, N-{4-[(5-Fluoro-7-methoxyquinazolin-4-yl)amino]phenyl}-2-[4-(propan-2-yl)-1H-1,2,3-triazol-1-yl]acetamide] | ≥ 10 | 0.068 | 2 | 0.025
5.35 | COc1cc(OC)c2c(Nc3ccc(NC(=O)Cn4cc(C(C)C)nn4)cc3)ncnc2c1 [Example 22, N-{4-[(5,7-Dimethoxyquinazolin-4-yl)amino]phenyl}-2-[4-(propan-2-yl)-1H-1,2,3-triazol-1-yl]acetamide] | ≥ 10 | 0.106 | 3 | 0.048
